In patent US8212038B2, “Methods and compositions for controlling ectoparasites” (HatchTech Pty Ltd., priority 2003, dated 2012):

Assays:
lice eggs = assay: Time course in vitro lice egg hatching assay; assay type: in vivo, Pediculus humanus humanus; conditions: for inhibition of lice egg hatching (in words): in vivo; for effect on egg hatching (in words): results not shown
[1] = system: Plutella xylostella eggs (Waite strain); assay: Egg hatch of Plutella xylostella after dipping in inhibitor
Method: The egg masses were then placed in a humid box at 25 degrees until egg hatch. Control eggs were exposed to absolute methanol as described above. At day 6 post laying the eggs were assessed from the different treatments and the percentage of egg hatch determined relative to the control as shown in Table 9.
Batches of Plutella eggs that were laid on either fine cloth or parafilm were dipped in a specific inhibitor solution for between 2-10 seconds, the excess solution was drained by blotting with dry tissue paper. The egg masses were then placed in a humid box at 25 degrees until egg hatch. Control eggs were exposed to absolute methanol as described above or not treated.
The egg masses were then placed in a humid box at 25 degrees until egg hatch. Control eggs were exposed to absolute ethanol as described above. On day 6 post laying the eggs were assessed from the different treatments and the percentage of egg hatch determined relative to the control.

[2] = system: Helicoverpa armigera eggs (Tatura×Toowoomba strains); assay: Egg hatch of Helicoverpa armigera after exposure to inhibitor; conditions: for % Inhibition of egg hatch relative to the control / Number hatched / Number unhatched / % Inhibition of egg hatch relative to control: day 6 post laying
Method: Several hundred Helicoverpa armigera eggs (Tatura×Toowoomba strains) were collected, that had been laid on fine mesh cloth over a 24 hour period.
Batches of Helicoverpa eggs were exposed to a specific inhibitor solution for between 2-10 seconds the excess solution drained by blotting with dry tissue paper. The egg masses were then placed in a humid box at 25 degrees until egg hatch. Control eggs were exposed to absolute methanol as described above.

[3] = system: Plutella xylostella eggs (Waite strain); assay: Reversal of ovicidal effect by FeSO4 on Plutella xylostella eggs; assay type: in vivo; conditions: for effect of added Fe (FeSO4) on the ovicidal effect (in words): 10 mM inhibitor, then FeSO4 10, 5 or 1 mM
Method: (§1) Within 24 hours of collection the following experimental design was chosen. Batches of eggs were exposed to 10 mM 6,69-dimethyl-2,29-dipyridyl for 2 seconds while additional batches of eggs were exposed to the solvent only (Methanol) for 2 seconds. All batches of eggs were allowed to air dry for 20 minutes at room temperature. The eggs were then given a 2 second exposure to FeSO4 at either 10, 5 or 1 mM, air dried and put in the incubator at 24° C. and allowed to hatch over the next 6 days. In addition, a positive control of 10 mM 6,69-dimethyl-2,29-dipyridyl was set up in which eggs were exposed to this compound for 2 seconds, air dried and placed in the incubator.
as §1, with “10 mM 5,59-dimethyl-2,29-dipyridyl for 2” for “10 mM 6,69-dimethyl-2,29-dipyridyl for 2”, “FeSO4 at 10, 5” for “FeSO4 at either 10, 5”, “put in an incubator at” for “put in the incubator at”, “of 10 mM, 5,59-dimethyl-2,29-dipyridyl was set” for “of 10 mM 6,69-dimethyl-2,29-dipyridyl was set”

B. ovis eggs = assay: Egg hatching in Bovicola ovis; assay type: in vivo; conditions: 10 mM; for inhibition of egg hatching (in words): 10 or 1 minute exposure
Method: B. ovis eggs were collected from the wool of sheep that were infested with this parasite. The eggs were collected using forceps and with the aid of a dissecting microscope and placed in 24 well tissue culture plates in duplicate lots of 10 eggs per replicate. The eggs were then exposed to either methanol alone (control) or the test compounds for either 10 minutes or 1 minute before being removed from the wells and placed into individual glass vials containing a diet at the base of the tube. The tubes were placed in plastic containers containing a salt solution (to keep humidity constant at 68%) and the containers maintained at a temperature 32° C. The eggs were monitored for hatching over the following 12 days and % hatch inhibition determined in comparison to the controls.

[4] = per replicate, […], concentration not given
[5] = Example 13, eggs laid on cloth, 1 mM
[6] = Example 13, eggs laid on cloth, 10 mM
[7] = Example 13, eggs laid on parafilm, 1 mM
[8] = Example 13, eggs laid on parafilm, 10 mM
[9] = 10 mM followed by 2 second exposure to 1 mM FeSO4
[10] = 10 mM followed by 2 second exposure to 5 mM FeSO4
[11] = 10 mM followed by 2 second exposure to 10 mM FeSO4
[12] = 10 mM followed by 2 second exposure to MEOH
[13] = 10 mM, 2 seconds, (+ve) control, no second exposure
[14] = 10 and 1 mM, listed as 6,6′ dimethyl-2,2′ dipyridyl
[15] = Example 12, 0.001 mM, day 6 post laying
[16] = Example 12, 0.01 mM, day 6 post laying
[17] = Example 12, 0.1 mM, day 6 post laying
[18] = Example 12, 1 mM, day 6 post laying
[19] = Example 12, 10 mM, day 6 post laying
[20] = Example 13, eggs laid on cloth, 0.01 mM
[21] = Example 13, eggs laid on cloth, 0.1 mM
[22] = Example 13, eggs laid on parafilm, 0.01 mM
[23] = Example 13, eggs laid on parafilm, 0.1 mM

## c1ccc(-c2ccccn2)nc1 [2,29-dipyridyl]
Lice eggs
  inhibition of lice egg hatching (in words): completely inhibited
Lice eggs; [4]
  Ph (number of eggs partly hatched): 0

## c1ccc(-c2ccc3ccccc3n2)nc1 [2-(2-pyridinyl)quinoline]
[1]; 10 mM
  inhibition of egg hatching in Plutella xylostella (in words): able to inhibit egg hatching

## Cc1ccnc(-c2cc(C)ccn2)c1 [4,4′-dimethyl-2,2′-dipyridyl]
[1]; 10 and 1 mM
  inhibition of egg hatching in Plutella xylostella (in words): significantly inhibit egg hatching
[1]; [5]
  % Inhibition of egg hatch relative to controls: 100%
  Number hatched: 0
  Number unhatched: 30
[1]; [6]
  % Inhibition of egg hatch relative to controls: 100%
  Number hatched: 0
  Number unhatched: 36
[1]; [7]
  % Inhibition of egg hatch relative to controls: 91%
  Number hatched: 10
[1]; [8]
  % Inhibition of egg hatch relative to controls: 100%
  Number hatched: 0
[2]; 1 mM
  inhibition of egg hatching of Helicoverpa armigera (in words): significant inhibition of egg hatching
[2]; 10 mM
  inhibition of egg hatching of Helicoverpa armigera (in words): significant inhibition of egg hatching
[2]; Example 15, 1 mM
  % Inhibition of egg hatch relative to the control: 66%
  Number hatched: 23
  Number unhatched: 29
[2]; Example 15, 10 mM
  % Inhibition of egg hatch relative to the control: 84%
  Number hatched: 8
  Number unhatched: 43

## Cc1ccc(-c2ccc(C)cn2)nc1 [5,5′-dimethyl-2,2′-dipyridyl]
[3]; [9]
  % Inhibition: 0%
  Number hatched: 39
  Number unhatched: 0
[3]; [10]
  % Inhibition: 0%
  Number hatched: 25
  Number unhatched: 0
[3]; [11]
  % Inhibition: 8%
  Number hatched: 23
  Number unhatched: 2
[3]; [12]
  % Inhibition: 55%
  Number hatched: 16
  Number unhatched: 19
[3]
  effect of added Fe (FeSO4) on the ovicidal effect (in words): able to reverse the effects
[3]; [13]
  % Inhibition: 100%
  Number hatched: 0
  Number unhatched: 38
[1]; 10 and 1 mM
  inhibition of egg hatching in Plutella xylostella (in words): significantly inhibit egg hatching
[1]; [5]
  % Inhibition of egg hatch relative to controls: 78%
  Number hatched: 5
  Number unhatched: 22
[1]; [6]
  % Inhibition of egg hatch relative to controls: 100%
  Number hatched: 0
  Number unhatched: 21
[1]; [7]
  % Inhibition of egg hatch relative to controls: 88%
  Number hatched: 18
[1]; [8]
  % Inhibition of egg hatch relative to controls: 100%
  Number hatched: 0
B. ovis eggs
  inhibition of egg hatching (in words): completely inhibited
B. ovis eggs; 1 minute exposure
  % Inhibition: 100%
B. ovis eggs; 10 minute exposure
  % Inhibition: 100%
[2]; 10 mM
  inhibition of egg hatching of Helicoverpa armigera (in words): significant inhibition of egg hatching
[2]; Example 15, 10 mM
  % Inhibition of egg hatch relative to the control: 100%
  Number hatched: 0
  Number unhatched: 42

## Cc1cccc(-c2cccc(C)n2)n1 [6,6′-dimethyl-2,2′-dipyridyl]
[3]; [9]
  % Inhibition: 3%
  Number hatched: 33
  Number unhatched: 1
[3]; [10]
  % Inhibition: 0%
  Number hatched: 25
  Number unhatched: 0
[3]; [11]
  % Inhibition: 38%
  Number hatched: 12
  Number unhatched: 19
[3]; [12]
  % Inhibition: 90%
  Number hatched: 3
  Number unhatched: 28
[3]
  effect of added Fe (FeSO4) on the ovicidal effect (in words): able to reverse the effects
[3]; [13]
  % Inhibition: 100%
  Number hatched: 0
  Number unhatched: 44
Lice eggs
  inhibition of lice egg hatching (in words): completely inhibited
Lice eggs; [4]
  H (number of eggs successfully hatched): 0
  Ph (number of eggs partly hatched): 0
[1]; 0.1 and 0.01 mM
  inhibition of egg hatching in Plutella xylostella (in words): no observable effects on egg hatching
[1]; [14]
  inhibition of egg hatching in Plutella xylostella (in words): strong ovicidal effects
[1]; 10 and 1 mM, listed as 6,6′-dimethyl-2,2′ dipyridyl
  inhibition of egg hatching in Plutella xylostella (in words): effective at inhibiting egg hatching
[1]; [15]
  % Inhibition of egg hatch relative to control: 0%
  Number hatched: 11
  Number unhatched: 6
[1]; [16]
  % Inhibition of egg hatch relative to control: 0%
  Number hatched: 13
  Number unhatched: 7
[1]; [17]
  % Inhibition of egg hatch relative to control: 0%
  Number hatched: 23
  Number unhatched: 29
[1]; [18]
  % Inhibition of egg hatch relative to control: 100%
  Number hatched: 0
  Number unhatched: 26
[1]; [19]
  % Inhibition of egg hatch relative to control: 100%
  Number hatched: 0
  Number unhatched: 79
[1]; [20]
  % Inhibition of egg hatch relative to controls: 12%
  Number hatched: 23
  Number unhatched: 4
[1]; [21]
  % Inhibition of egg hatch relative to controls: 0%
  Number hatched: 49
  Number unhatched: 49
[1]; [5]
  % Inhibition of egg hatch relative to controls: 100%
  Number hatched: 0
  Number unhatched: 23
[1]; [6]
  % Inhibition of egg hatch relative to controls: 100%
  Number hatched: 0
  Number unhatched: 53
[1]; [22]
  % Inhibition of egg hatch relative to controls: 0%
  Number hatched: 92
  Number unhatched: 4
[1]; [23]
  % Inhibition of egg hatch relative to controls: 7%
  Number hatched: 65
  Number unhatched: 70
[1]; [7]
  % Inhibition of egg hatch relative to controls: 100%
  Number hatched: 0
  Number unhatched: 63
[1]; [8]
  % Inhibition of egg hatch relative to controls: 100%
  Number hatched: 0
B. ovis eggs
  inhibition of egg hatching (in words): completely inhibited
B. ovis eggs; 1 minute exposure
  % Inhibition: 100%
B. ovis eggs; 10 minute exposure
  % Inhibition: 100%
[2]; 0.1 mM
  inhibition of egg hatching of Helicoverpa armigera (in words): no inhibition of egg hatching
[2]; 10 and 1 mM
  inhibition of egg hatching of Helicoverpa armigera (in words): significantly inhibit the egg hatching
[2]; [14]
  inhibition of egg hatching of Helicoverpa armigera (in words): significantly inhibit egg hatching
[2]; Example 14, 0.001 mM
  % Inhibition of egg hatch relative to control: 0%
[2]; Example 14, 0.01 mM
  % Inhibition of egg hatch relative to control: 0%
[2]; Example 14, 0.1 mM
  % Inhibition of egg hatch relative to control: 0%
[2]; Example 14, 1 mM
  % Inhibition of egg hatch relative to control: 97%
  Number hatched: 4
  Number unhatched: 140
[2]; Example 14, 10 mM
  % Inhibition of egg hatch relative to control: 94%
  Number hatched: 7
  Number unhatched: 98
[2]; Example 15, 0.1 mM
  % Inhibition of egg hatch relative to the control: 0%
  Number hatched: 70
  Number unhatched: 0
[2]; Example 15, 1 mM
  % Inhibition of egg hatch relative to the control: 97%
  Number hatched: 2
  Number unhatched: 61
[2]; Example 15, 10 mM
  % Inhibition of egg hatch relative to the control: 94%
  Number hatched: 3
  Number unhatched: 48
[2]; concentrations below 1 mM
  inhibition of egg hatching of Helicoverpa armigera (in words): No inhibition

## O=C(O)CN(CCN(CC(=O)O)CC(=O)O)CC(=O)O [EDTA, reference compound]
Lice eggs; 100 mM
  effect on egg hatching (in words): did not appear to have an effect on egg hatching

## O=C(O)CN(CCOCCOCCN(CC(=O)O)CC(=O)O)CC(=O)O [EGTA, reference compound]
Lice eggs; 10 mM
  effect on egg hatching (in words): did not appear to have an effect on egg hatching

## CC(C)C[C@H](CC(=O)O)C(=O)N[C@@H](Cc1c[nH]c2ccccc12)C(=O)N[C@@H](C)c1ccccc1 [GM 1489, reference compound]
Lice eggs; concentration not given
  % Inhibition of lice egg hatching (maximum over the time-course): 0%
